Where “and” joins values, the source holds several entries; their conditions need not be identical. Identical values can stand only once.
Test: xn = mol fraction of the nth substance listed

CC(C)CCC[C@@H](C)[C@H]1CC[C@H]2[C@@H]3CC=C4C[C@@H](O)CC[C@]4(C)[C@H]3CC[C@]12C + ClCCCl
viscosity [mPa·s], 101.33 kPa
Settings	298 K	303 K	313 K	323 K
x1 = 0.00307	0.794	0.743	0.659	0.587
x1 = 0.00516	0.812	0.761	0.673	0.599
x1 = 0.00648	0.825	0.772	0.682	0.608
x1 = 0.00816	0.84	0.785	0.692	0.619

NC(N)=O + C[N+](C)(C)CCO.[Cl-]
viscosity
Settings	100 kPa	101 kPa
293.15 K, x2 = 0.326	1696 mPa·s	–
298.15 K, x2 = 0.33	952.7 mPa·s	–
298.15 K, x2 = 0.333	750 mPa·s and 1264 mPa·s	859.5 mPa·s
298.15 K, x2 = 0.3333	–	748.1 mPa·s
303 K, x2 = 0.3333	–	427.4 mPa·s
303.15 K, x1 = 0.7	–	893 mPa·s
303.15 K, x2 = 0.326	635.5 mPa·s	–
303.15 K, x2 = 0.33	628.9 mPa·s	536.9 mPa·s
303.15 K, x2 = 0.333	562.7 mPa·s	–
303.15 K, x2 = 0.3333	–	511.6 mPa·s
308 K, x2 = 0.333	–	402.8 mPa·s
308 K, x2 = 0.3333	–	310.5 mPa·s
308.15 K, x2 = 0.326	414.6 mPa·s	–
308.15 K, x2 = 0.33	421.9 mPa·s	–
308.15 K, x2 = 0.333	–	348.2 mPa·s
308.15 K, x2 = 0.3333	–	351.5 mPa·s
313 K, x2 = 0.333	–	228 mPa·s
313 K, x2 = 0.3333	–	225.8 mPa·s
313.15 K, x2 = 0.326	280.7 mPa·s	–
313.15 K, x2 = 0.33	314 mPa·s	242.5 mPa·s
313.15 K, x2 = 0.333	296.3 mPa·s	–
313.15 K, x2 = 0.3333	–	243 mPa·s
318 K, x2 = 0.3333	–	163.3 mPa·s
318.15 K, x2 = 0.326	196.4 mPa·s	–
318.15 K, x2 = 0.33	224.4 mPa·s	–
318.15 K, x2 = 0.333	244.7 mPa·s	175.1 mPa·s
318.15 K, x2 = 0.3333	–	169.6 mPa·s
323 K, x2 = 0.333	–	105.6 mPa·s
323 K, x2 = 0.3333	–	121 mPa·s
323.15 K, x1 = 0.7	–	197 mPa·s
323.15 K, x2 = 0.326	142 mPa·s	–
323.15 K, x2 = 0.33	161.2 mPa·s	–
323.15 K, x2 = 0.333	171.5 mPa·s and 198.4 mPa·s	–

CCCCCCCCCCO + CCCCCCCCCC
298.15 K, 101.3 kPa
Settings	viscosity [mPa·s]
x1 = 0.0518	0.924
x1 = 0.1069	1.021
x1 = 0.1649	1.168
x1 = 0.2141	1.308
x1 = 0.2591	1.457
x1 = 0.3013	1.618
x1 = 0.4008	2.078
x1 = 0.5047	2.74
x1 = 0.6063	3.619
x1 = 0.6847	4.535
x1 = 0.8044	6.474
x1 = 0.8482	7.392
x1 = 0.8943	8.5
x1 = 0.9494	10.05

CCOC(=O)OCC + CCCCCCCCCCCC
298.15 K, 101.3 kPa
Settings	viscosity [mPa·s]
x1 = 0.0152	1.301
x1 = 0.0779	1.228
x1 = 0.1327	1.18
x1 = 0.1841	1.133
x1 = 0.2993	1.047
x1 = 0.4701	0.942
x1 = 0.6163	0.86
x1 = 0.7539	0.793
x1 = 0.9071	0.745
x2 = 0.014	0.741

CCCCCCCCCCCC + CC(C)O
viscosity [mPa·s], 101.32 kPa
Settings	293.15 K	298.15 K	303.15 K
x2 = 0.0422	1.446	1.325	1.219
x2 = 0.0957	1.424	1.306	1.191
x2 = 0.2215	1.397	1.276	1.177
x2 = 0.3267	1.396	1.27	1.164
x2 = 0.3943	1.407	1.28	1.167
x2 = 0.4959	1.421	1.28	1.16
x2 = 0.5981	1.48	1.324	1.192
x2 = 0.6957	1.566	1.392	1.243
x2 = 0.8012	1.714	1.503	1.33
x2 = 0.9005	1.92	1.674	1.467
x2 = 0.9502	2.101	1.815	1.58

Cl[Si](Cl)(Cl)Cl + COCOC
303.1 K, 101 kPa
Settings	viscosity [mPa·s]
x2 = 0.0989	0.419
x2 = 0.1906	0.412
x2 = 0.2879	0.402
x2 = 0.3682	0.405
x2 = 0.3933	0.41
x2 = 0.4424	0.414
x2 = 0.5106	0.428
x2 = 0.596	0.458
x2 = 0.6589	0.472
x2 = 0.7083	0.461
x2 = 0.7984	0.434
x2 = 0.8477	0.414
x2 = 0.9026	0.369

COC=O + O=C1CCCO1
298.15 K, 101.33 kPa
Settings	viscosity [mPa·s]
x1 = 0.0499	1.589
x1 = 0.1025	1.457
x1 = 0.153	1.367
x1 = 0.2017	1.262
x1 = 0.2492	1.175
x1 = 0.303	1.08
x1 = 0.4004	0.913
x1 = 0.4594	0.821
x1 = 0.5053	0.747
x1 = 0.5599	0.678
x1 = 0.6177	0.611
x1 = 0.7071	0.515
x1 = 0.7556	0.456
x1 = 0.8	0.426
x1 = 0.8515	0.38
x1 = 0.9005	0.344
x1 = 0.9511	0.331

c1ccc(Oc2ccccc2)cc1 + CCOc1ccccc1
298.15 K, 101 kPa
Settings	viscosity [mPa·s]
x2 = 0.1367	3.264
x2 = 0.2072	3.003
x2 = 0.3253	2.63
x2 = 0.3731	2.455
x2 = 0.5105	2.096
x2 = 0.6002	1.862
x2 = 0.7037	1.632
x2 = 0.8127	1.451
x2 = 0.9006	1.309

Nc1ccc(S(N)(=O)=O)cc1 + O
viscosity [mPa·s], 101 kPa
Settings	x1 = 0.0001938	x1 = 0.000331	x1 = 0.0004378	x1 = 0.0004556	x1 = 0.000456	x1 = 0.0005923	x1 = 0.0007136
298.15 K	0.8931	0.895	0.8965	0.897	–	0.899	0.9008
308.15 K	0.7207	0.7224	0.7234	0.724	–	0.7254	–
318.15 K	0.5965	0.5979	0.5992	–	0.5993	0.6007	0.6015

CCCCCCCCCCO + CCCCCCCO
viscosity [mPa·s], 101.8 kPa
Settings	x2 = 0.1302	x2 = 0.3682	x2 = 0.5771	x2 = 0.7604	x2 = 0.9256
298.15 K	10.82	9.364	8.193	7.155	6.307
308.15 K	7.586	6.635	5.836	5.18	4.596
318.15 K	5.438	4.801	4.264	3.812	3.413

CC(C)[C@@H]1CC[C@@H](C)C[C@H]1O + CCCCCCCO
Settings	viscosity [mPa·s]
298.15 K, 101.33 kPa, x1 = 0.5	27.53

COCCOCCO + O=C1CCCN1
298.15 K, 101 kPa
Settings	viscosity [mPa·s]
x1 = 0.0019	14.15
x1 = 0.0054	14.04
x1 = 0.0129	13.78
x1 = 0.0209	13.49
x1 = 0.0311	13.16
x1 = 0.0482	12.66
x1 = 0.0682	12.11
x1 = 0.0864	11.61
x1 = 0.1139	10.99
x1 = 0.1615	9.962
x1 = 0.2074	9.178
x1 = 0.2531	8.449
x1 = 0.2817	8.045
x1 = 0.3289	7.543
x1 = 0.3814	7.009
x1 = 0.4684	6.246
x1 = 0.489	6.106
x1 = 0.5396	5.741
x1 = 0.6097	5.295
x1 = 0.6687	4.976
x1 = 0.7169	4.749
x1 = 0.7652	4.502
x1 = 0.8144	4.294
x1 = 0.8697	4.069
x1 = 0.8962	3.972
x1 = 0.9239	3.85
x1 = 0.9469	3.745
x1 = 0.9719	3.658
x2 = 0.0058	3.533
x2 = 0.0141	3.561

Source: the CheMixHub viscosity set
